System: control human primary myoblasts
Assay: Expression microarray of primary myoblasts transduced with lentivirus carrying DUX4-fl, DUX4-s or GFP
Description: Primary human myoblasts were collected and cultured as previously described (Snider et al., 2010). Primary myoblasts were maintained at or below 70% confluency for proliferation. For differentiation, cells were allowed to reach 95-100% confluency in growth medium. Once confluency was reached, the cells were changed to differentiation medium (F10 media supplemented with 1% horse serum, 10 μg/mL insulin, and 10 μg/mL transferrin, penicillin/streptomycin) and maintained for 4 days. Human RD cells were grown in DMEM in 10% bovine calf serum (Hyclone) and penicillin/streptomycin. The primary myoblasts were transduced with lentivirus carrying DUX-fl, DUX4- or GFP (MOI=15).
Expression microarrays were performed on the transduced cells at 24 hours after transduction as follows. […] Samples were analyzed by Illumina Human Whole Genome microarrays. Probe intensities were corrected, normalized, and summarized by the Lumi package of Bioconductor (Du et al., 2008). Differentially expressed genes were identified by the LIMMA package of Bioconductor (Wettenhall and Smyth, 2004). Gene set enrichment analysis (GSEA) was performed using the Bioconductor GOstats package (Falcon and Gentleman, 2007).

## DUX4-fl: full-length DUX4 protein (SEQ ID NO:110), expressed from lentiviral or pCS2 vectors or in vitro translated
log2 fc vs lenti-GFP, 24 h
  full_fc PRAMEF13: 7.422
  full_fc PRAMEF15: 7
  full_fc PRAMEF17: 4.223
  full_fc PRAMEF20: 4.795
  full_fc RFPL1: 6.264
  full_fc RFPL1S: 8.396
  full_fc RFPL2: 7.293
  full_fc RFPL3: 8.144
  full_fc RFPL4A: 4.348
  full_fc RFPL4B: 8.34
  full_fc RN5S9: 4.191
  full_fc SFRS2B: 4.215
  full_fc SLC34A2: 5.514
  full_fc SPRYD5: 8.045
  full_fc THOC4: 4.035
  full_fc TPRX1: 4.483
  full_fc TRIM43: 5.806
  full_fc TRIM48: 7.88
  full_fc TRIM49: 6.551
  full_fc TRIM53: 4.778
  full_fc TRIM64: 4.943
  full_fc ZNF217: 4.114
  full_fc ZNF296: 5.536
  full_fc ZNF705A: 6.832
  full_fc ZSCAN4: 8.322
Log 2fc≧5
  number of genes increased 32-fold or more: 72 genes
Vs lenti-GFP, 24 h
  Log2 Fc AMACR: 2.7 log2
  Log2 Fc ARIH1: 2.2 log2
  Log2 Fc ARS2: 2.6 log2
  Log2 Fc CBARA1: 2.1 log2
  Log2 Fc CD24: 2.6 log2
  Log2 Fc CSAG3: 5.9 log2
  Log2 Fc CSE1L: 2.9 log2
  Log2 Fc CWC15: 2.6 log2
  Log2 Fc CXADR: 2.5 log2
  Log2 Fc CXCR4: 2.0 log2
  Log2 Fc DBR1: 3.4 log2
  Log2 Fc DEFB103B: 6.4 log2
  Log2 Fc FBXO33: 3.2 log2
  Log2 Fc FGFR3: 3.1 log2
  Log2 Fc FLJ45337: 3.7 log2
  Log2 Fc GTF2F1: 3.2 log2
  Log2 Fc HNRNPCL1: 3.5 log2
  Log2 Fc HOXB2: 2.2 log2
  Log2 Fc HSPA2: 3.7 log2
  Log2 Fc ID2: 2.3 log2
  Log2 Fc IFRD1: 3.0 log2
  Log2 Fc JUP: 3.2 log2
  Log2 Fc KHDC1L: 8.0 log2
  Log2 Fc MBD3L2: 7.6 log2
  Log2 Fc MED26: 2.1 log2
  Log2 Fc MGC10997: 2.4 log2
  Log2 Fc PABPN1: 2.6 log2
  Log2 Fc PELI1: 2.9 log2
  Log2 Fc PNMA6B: 3.6 log2
  Log2 Fc PRAMEF1: 8.1 log2
  Log2 Fc PVRL3: 2.2 log2
  Log2 Fc RMRP: 2.3 log2
  Log2 Fc RNGTT: 2.0 log2
  Log2 Fc RPPH1: 2.0 log2
  Log2 Fc RRN3: 2.1 log2
  Log2 Fc SFRS2B: 4.2 log2
  Log2 Fc SFRS17A: 2.5 log2
  Log2 Fc SIAH1: 3.7 log2
  Log2 Fc SLC2A14: 2.4 log2
  Log2 Fc SLC34A2: 5.5 log2
  Log2 Fc SNIP1: 2.1 log2
  Log2 Fc SON: 2.1 log2
  Log2 Fc SPRYD5: 8.0 log2
  Log2 Fc SPTY2D1: 3.3 log2
  Log2 Fc TFIP11: 3.2 log2
  Log2 Fc THOC4: 4.0 log2
  Log2 Fc TPRX1: 4.5 log2
  Log2 Fc TRIM23: 2.2 log2
  Log2 Fc TRIM43: 5.8 log2
  Log2 Fc USP29: 2.6 log2
  Log2 Fc ZNF217: 4.1 log2
  Log2 Fc ZNF705A: 6.8 log2
  Log2 Fc ZNHIT6: 3.5 log2
  Log2 Fc ZSCAN2: 2.2 log2
  Log2 Fc ZSCAN4: 8.3 log2
